Read-outs that look alike come from different tables or passages of the source.
What was measured:
[1] = biological target: ACE-2: SARS-CoV-2 Spike (RBD) (Homo sapiens, UniProt Q9BYF1); experiment: ACE-2: Spike RBD (SARS-CoV-2) inhibitor screening colorimetric assay; type: binding, human; SARS-CoV-2; details: in vitro colorimetric kit; mean ± SD; read-out: IC50, ACE2 spike RBD (SARS-CoV-2) inhibitory effect
[2] = tested on: Human lung microvascular endothelial cells (HLMEC); experiment: MTT cell viability assay in HLMEC; type: cell-based; details: 48 h, read-out: IC50, viability of HLMEC
Procedure: Human lung microvascular endothelial cells (HLMEC) were acquired from Lonza (Hayward, CA, USA). The cells were seeded in an endothelial cell growth medium (EGM-2 MV) (Lonza, Hayward, CA, USA) at 37°C and 5% CO2. Then, at 5 to 7 passages, the cells were plated in 100 μL/well EGM-2 MV medium in collagen-covered 96-well plates. The cells were grown for 3–5 days to reach the confluent layer. Cell viability was valued by the MTT Cell Growth Assay Kit (Sigma-Aldrich, Steinheim, Germany) using untreated cells as control.
(§1) An experimental model of HLMEC was applied to study the effects of the endophytic compounds 1–4 on ACE-2 protein expression. Preceding this analysis, the cytotoxic effect of compounds 1–4 was determined on HLMEC using an MTT assay. HLMEC were treated with different dilutions of the test samples (0.39–100 μM) for 48 h. Compounds 1–4 being nontoxic (IC50>100 μM, Table 6).

[3] = tested on: ACE-2 protein expression in HLMEC; experiment: Western blot of ACE-2 protein expression in HLMEC; type: cell-based, human; details: 25 μM, 48 h, western blot vs untreated cells
Procedure: HLMEC cells were seeded, cultured, and incubated with compounds 1–4 for 48h. RIPA buffer (Cell Signaling, Danvers, MA) was employed to obtain the entire-cell protein lysates. Bradford method was used to determine the concentration of protein. Western blot assay was done as previously stated using untreated cells as control. Anti-ACE-2 antibody [EPR24705-45] ab272500 (Abcam, Cambridge, UK) was used.
as §1

TNF-α: TNFR2 = biological target: T1, TNF-α: TNFR2 (Homo sapiens, UniProt P01375); experiment: TNFR2: TNF-α [Biotinylated] inhibitor screening assay; type: binding; details: in vitro kit, mean ± SD
T1 construct: purchased BPS bioscience
Source text: In vitro TNF-α [Biotinylated] inhibition assay. TNFR2: TNF-α [Biotinylated] inhibitor screening assay kit (BPS bioscience, Cornerstone Court W, Ste B San Diego, CA 92121) was used to screen for the in vitro inhibition of TNF-α binding to tumor necrosis factor receptor 2 (TNFR2) following the manufacturer’s protocol.

[4] = tested on: TNF-α mRNA in LPS-stimulated RAW 264.7 macrophages; experiment: TNF-α gene expression (qRT-PCR) in LPS-induced RAW 264.7 cells; type: cell-based; details: LPS (1 μg/mL)-stimulated RAW 264.7, sub IC50 concentration, relative to LPS control, referenced to Actb
Procedure: (§2) Evaluation of pro-inflammatory cytokines (TNF- α and IL-6) using LPS-induced RAW 264.7 cells. RAW 264.7 macrophage cells were procured from the American Type Culture Collection (Manassas, VA, USA) and grown as previously described. In vitro Toxicology Assay Kit, MTT Based (Sigma-Aldrich, Saint Louis, Missouri, USA) was employed to establish cell viability at concentrations (1–250 μM). Treatment of RAW 264.7 cells and determination of the inhibitory effect of the active compounds at sub IC50 values on TNF- α and IL-6 gene expression in RAW264.7 cells were performed as mentioned before using LPs treated cells as control.

[5] = tested on: IL-6 mRNA in LPS-stimulated RAW 264.7 macrophages; experiment: IL-6 gene expression (qRT-PCR) in LPS-induced RAW 264.7 cells; type: cell-based; details: LPS (1 μg/mL)-stimulated RAW 264.7, sub IC50 concentration, relative to LPS control, referenced to Actb
Procedure: as §2

[6] = Solubility observation of the isolated compound; type: physicochemical; details: observation on the isolated oil
Source text: In addition, there were complex multiplet overlapping signals for several hydrogen protons characteristic for different methylene groups laying in the same chemical environment (H- 5’/5’’, H-6’/6’’, H-11’/11’’ and 12’/12’’). […] In addition to two carbonyl carbons, one of which (C-1’/1’’ δC 167.7) is upfield due to its attachment to the aromatic ring while the other is downfield (C-9’/9’’, δC 174.0). The downfield shift of the two-methylene groups 3’/3’’ (δC, 68.2) and 7’/7’’ (δC 66.7) confirm their attachment to O-C = O. Moreover, the structure contained only one methine group at δC 38.7 (CH- 4’/4’’) and two methyl groups CH3-13’/13’’ and 14’/14’’ at δC 10.9 and 14.0, respectively. Furthermore, there were another five CH2 groups at δC 30.4, 23.7, 34.4, 25.0, and 29.1 for C-5’, 6’, 10’,11’, and 12’, respectively. H-H-COSY (Fig 1) established the correlation between the aromatic ring’s protons and that between the side chains’ protons. Additionally, HMBC data (Fig 1) confirmed the substitution of the aromatic ring through the correlation from H-2/5 ([…]) to C-3/4 (δC 130.9) and that between H-3/4 (δC 7.54) and C-2/5 (δC 128.8). The connectivity of the side chain to the aromatic ring at C-1 and C-6 was established through the correlation from H-2/5 (δH 7.72) to C-1`/1” (δC 167.7). […]

[7] = read-out: IC50, TNF-α: TNFR2 inhibitory effect

T1 sequence (P01375 77-233 limits assumed): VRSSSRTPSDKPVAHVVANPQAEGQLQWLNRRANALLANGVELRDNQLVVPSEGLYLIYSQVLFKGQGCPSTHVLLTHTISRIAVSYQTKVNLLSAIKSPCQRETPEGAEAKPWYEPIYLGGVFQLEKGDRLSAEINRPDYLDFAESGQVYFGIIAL
ACE-2: SARS-CoV-2 Spike (RBD), sequence (Q9BYF1 18-740): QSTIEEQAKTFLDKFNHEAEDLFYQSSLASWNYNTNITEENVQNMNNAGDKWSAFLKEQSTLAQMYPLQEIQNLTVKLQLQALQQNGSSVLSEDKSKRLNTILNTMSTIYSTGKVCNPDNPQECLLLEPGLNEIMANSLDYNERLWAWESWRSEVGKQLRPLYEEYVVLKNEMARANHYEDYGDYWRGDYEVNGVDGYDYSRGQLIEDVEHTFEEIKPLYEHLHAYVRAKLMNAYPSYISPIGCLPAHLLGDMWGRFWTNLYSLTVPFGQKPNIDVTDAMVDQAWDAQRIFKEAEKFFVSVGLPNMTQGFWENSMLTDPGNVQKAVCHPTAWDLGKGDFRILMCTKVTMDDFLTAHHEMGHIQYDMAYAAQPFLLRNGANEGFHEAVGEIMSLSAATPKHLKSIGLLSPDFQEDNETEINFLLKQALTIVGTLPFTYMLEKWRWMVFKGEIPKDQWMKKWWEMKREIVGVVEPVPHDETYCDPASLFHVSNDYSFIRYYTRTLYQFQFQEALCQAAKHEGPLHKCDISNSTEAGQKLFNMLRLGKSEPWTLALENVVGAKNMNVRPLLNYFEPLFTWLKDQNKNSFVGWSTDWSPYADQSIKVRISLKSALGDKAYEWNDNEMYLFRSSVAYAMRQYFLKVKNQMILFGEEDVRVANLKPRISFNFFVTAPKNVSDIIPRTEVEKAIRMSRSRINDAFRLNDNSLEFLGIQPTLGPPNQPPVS

Structure (SMILES): CC1CCC2C(C1)c1ccccc1C1CCCCC(C)N12 (centres unmarked) [Compound 1, altenuline]
- IC50 [1]: 15.5 ± 0.45 µM
- IC50 [2]: > 100 µM
- ACE2% inhibition (ACE2 protein expression) [3]: 49.65 ± 3.06 %
- IC50 (TNF-α: TNFR2; [7]): 8.7 ± 0.34 µM

Structure (SMILES): COc1cc(O)c2c(=O)oc3c(c2c1)C(C)CC3=O (centres unmarked) [Compound 3, 1-deoxyrubralactone]
- IC50 [1]: 12.5 ± 0.46 µM
- IC50 [2]: > 100 µM
- ACE2% inhibition (ACE2 protein expression) [3]: 29.91 ± 4.26 %

Structure (SMILES): CCCCC(=O)OCCCC(C)COC(=O)c1ccccc1C(=O)OCC(C)CCCOC(=O)CCCC (centres unmarked) [Compound 2, phthalic acid bis (7’/7’’ pentyloxy) isohexyl ester]
- IC50 [1]: 10.4 ± 0.25 µM
- IC50 [2]: > 100 µM
- ACE2% inhibition (ACE2 protein expression) [3]: 70.51± 4.80%
- IC50 (TNF-α: TNFR2; [7]): 5.4 ± 0.33 µM
- TNF-α mRNA expression fold change [4]: 0.45 ± 0.07
- IL-6 mRNA expression fold change [5]: 0.30 ± 0.02
- solubility in water [6]: insoluble in water

Structure (SMILES): COc1cc(O)c2c(=O)oc3cc(O)cc(C)c3c2c1 [Compound 4, alternariol-5-O-methyl ether]
- IC50 [1]: 11.7 ± 0.34 µM
- IC50 [2]: > 100 µM
- ACE2% inhibition (ACE2 protein expression) [3]: 50.85 ± 4.34%
- IC50 (TNF-α: TNFR2; IC50, TNF-α: TNFR2 inhibitory effect): 4.97 ± 0.28 µM
- TNF-α mRNA expression fold change [4]: 0.28 ± 0.02
- IL-6 mRNA expression fold change [5]: 0.14 ± 0.01

Reference: article PMC11760621, “Secondary metabolites of Alternaria alternate appraisal of their SARS-CoV-2 inhibitory and anti-inflammatory potentials” (PLOS ONE, 2025)
